Type in all cases: functional
Assay [1] concerns Enterococcus faecalis. Nature of the assay: Antibacterial activity against Streptococcus faecalis by broth microdilution method. Background: Broth dilution looks for growth in wells or tubes with falling amounts of substance.
For assay [2], the system named is Staphylococcus aureus. The experiment in a line: Antibacterial activity against methicillin-resistant Staphylococcus aureus SA86 by broth microdilution method.
Assay [3] concerns Enterococcus faecalis. The experiment in a line: Bactericidal activity against Enterococcus faecalis ATCC 29212 incubated prior to replating on agar plate measured after overnight incubation.
The subject of assay [4] is Enterococcus faecium. Nature of the assay: Antibacterial activity against Enterococcus faecium ET6 by broth microdilution method.
Assay [5] relates to Staphylococcus aureus. The experiment in a line: Antibacterial activity against methicillin-resistant Staphylococcus aureus ATCC 33591 infected in iv dosed CD-1 ICR mouse administered as single dose measured after 7 days. Particulars: ATCC 33591, iv, 168 h.
For assay [6], the system named is Staphylococcus aureus. The experiment in a line: Antibacterial activity against methicillin-resistant Staphylococcus aureus SA14 by broth microdilution method.
The subject of assay [7] is Staphylococcus aureus. Nature of the assay: Antibacterial activity against Staphylococcus aureus ATCC 29213 by broth microdilution method.
The subject of assay [8] is Enterococcus faecalis. Nature of the assay: Antibacterial activity against Enterococcus faecalis ZS129 by broth microdilution method.
In assay [9] the test system is Staphylococcus aureus. The experiment in a line: Antibacterial activity against Staphylococcus aureus ATCC 29213 assessed as mutation prevention concentration measured after 72 hrs. As to conditions: ATCC 29213, 72 h.
Assay [10] has as its system Enterococcus faecium. Nature of the assay: Antibacterial activity against Enterococcus faecium ET60 by broth microdilution method.
In assay [11] the test system is Enterococcus faecalis. The experiment in a line: Antibacterial activity against Enterococcus faecalis T1027 by broth microdilution method.
In assay [12] the test system is Staphylococcus aureus. The experiment in a line: Antibacterial activity against methicillin-resistant Staphylococcus aureus SA88 by broth microdilution method.
In assay [13] the test system is Staphylococcus aureus. Nature of the assay: Antibacterial activity against methicillin-resistant Staphylococcus aureus 0114 infected in iv dosed CD-1 ICR mouse administered as single dose measured after 7 days. Particulars: Staphylococcus aureus, 0114, iv, 168 h.
Assay [14] has as its system Enterococcus faecalis. Nature of the assay: Antibacterial activity against Enterococcus faecalis ATCC 29212 assessed as mutation prevention concentration measured after 72 hrs. Particulars: ATCC 29212, 72 h.
Assay [15] deals with Staphylococcus aureus. The experiment in a line: Antibacterial activity against methicillin-resistant Staphylococcus aureus SA11 by broth microdilution method.
The subject of assay [16] is Staphylococcus aureus. Nature of the assay: Bactericidal activity against Staphylococcus aureus ATCC 29213 incubated prior to replating on agar plate measured after overnight incubation.
For assay [17], the system named is Staphylococcus aureus. The experiment in a line: Antibacterial activity against Staphylococcus aureus ATCC 29213 assessed as ratio of MIC after and before 7 serial passages at sub-MIC by broth microdilution method.
For assay [18], the system named is Staphylococcus aureus. Nature of the assay: Antibacterial activity against Staphylococcus aureus ATCC 29213 assessed as ratio of MIC after and before 1 serial passage at sub-MIC by broth microdilution method.
The subject of assay [19] is Staphylococcus aureus. The experiment in a line: Antibacterial activity against Staphylococcus aureus USA300 infected in Balb/c mouse model of sepsis assessed as mouse survival at 0.925 mg/kg, sc administered twice daily for 5 days starting from 1 hr post-infection relative to control.
In assay [20] the test system is Enterococcus faecalis. The experiment in a line: Antibacterial activity against Enterococcus faecalis ATCC 29212 by broth microdilution method.

In brackets after ≈: the same amount, converted by molar mass.

As for `CCCCCCCCCC(=O)N[C@@H](Cc1c[nH]c2ccccc12)C(=O)N[C@H](CC(N)=O)C(=O)N[C@@H](CC(=O)O)C(=O)N[C@@H]1C(=O)NCC(=O)N[C@@H](CCCN)C(=O)N[C@@H](CC(=O)O)C(=O)N[C@H](C)C(=O)N[C@@H](CC(=O)O)C(=O)NCC(=O)N[C@H](CO)C(=O)N[C@@H]([C@@H](C)CC(=O)O)C(=O)N[C@@H](CC(=O)c2ccccc2N)C(=O)O[C@@H]1C`, the minimum inhibitory concentration (MIC) turned out to be 0.5 µg/mL (≈ 0.309 µM) in the assay with Enterococcus faecalis [1]; 0.5 µg/mL (≈ 0.309 µM) against Staphylococcus aureus [2]; 4 µg/mL (≈ 2.47 µM) against Enterococcus faecium [4]; 0.5 µg/mL (≈ 0.309 µM) against Staphylococcus aureus [6]; 0.5 µg/mL (≈ 0.309 µM) in the assay with Staphylococcus aureus [7]; 0.5 µg/mL (≈ 0.309 µM) in the assay on Enterococcus faecalis [8]. Also, the minimum inhibitory concentration (MIC) against Enterococcus faecium [10] was 2 µg/mL (≈ 1.23 µM); in the assay with Enterococcus faecalis [11] it was 16 µg/mL (≈ 9.87 µM); in the assay with Staphylococcus aureus [12], 0.5 µg/mL (≈ 0.309 µM); against Staphylococcus aureus [15], 2 µg/mL (≈ 1.23 µM); in the assay with Enterococcus faecalis [20], 4 µg/mL (≈ 2.47 µM). Moreover, the MBC against Enterococcus faecalis [3] was found to be 16 µg/mL (≈ 9.87 µM); in the assay with Staphylococcus aureus [16], 0.25 µg/mL (≈ 0.154 µM). The ED50 with Staphylococcus aureus [5] amounted to 2.14 mg/kg; in the assay with Staphylococcus aureus [13], 2.19 mg/kg. For the same compound, the MPC came to 16 µg/mL in the assay with Staphylococcus aureus [9] and 32 µg/mL in the assay on Enterococcus faecalis [14]. Moreover, the results for the Ratio with Staphylococcus aureus [17] and in the assay on Staphylococcus aureus [18] were 8 and 2, respectively. Besides, the survival at 0.925 mg/kg in the assay on Staphylococcus aureus [19] is 50%.

In general, MIC refers to the lowest concentration that inhibits growth of the organism. One may read the MBC as the lowest tested concentration that kills the bacteria rather than only halting them. The term ED50 denotes the dose at which the effect has come halfway, by size or by number of responders.

For the origin of these results see ChEMBL document CHEMBL4402571, “Methylation of Daptomycin Leading to the Discovery of Kynomycin, a Cyclic Lipodepsipeptide Active against Resistant Pathogens” (J Med Chem, 2020).
